The results in this text go back to patent US20170360947A1, “POLYMER PARTICLES AND BIOMATERIALS COMPRISING THE SAME” (UNIVERSITE DE BORDEAUX, priority 2014, published 2017).

In brackets after ≈: the same amount, converted by molar mass.

One assay relates to MRSA BCB8. In words: MIC determination in Mueller-Hinton broth (absorbance at 600 nm). The class given is cell-based, S. aureus. The protocol:
From a 24 h bacterial culture, MRSA BCB8 were suspended in Mueller-Hinton broth to obtain a 0.5 McF suspension, which was diluted to a final concentration of 1.10^6 CFU·ml^−1.
Then twofold serial dilutions of chemicals were prepared (from 256 μg·ml^−1 to 0.06 μg·ml^−1) and 100 μl of MRSA BCB8 suspension were incubated with 200 μl of chemical containing solutions for 24 h at 37° C.
After this time, suspension absorbances were measured at 600 nm. MICs were determined as the minimal concentration for which the lowest absorbance is observed.

The subject of assay [1] is MRSA strain obtained from blood cultures. Kind of assay: Gentamicin susceptibility of the MRSA strain studied in vivo. The format is cell-based, S. aureus. The method, then:
Strain studied: an MRSA strain obtained from blood cultures (gentamicin MIC<0.5 μg/mL). Assessment of the animal model was realized with 10^3 CFU/mL inoculum.

`CN[C@H](CC(C)C)C(=O)N[C@H]1C(=O)N[C@@H](CC(N)=O)C(=O)N[C@H]2C(=O)N[C@H]3C(=O)N[C@H](C(=O)N[C@H](C(=O)O)c4cc(O)cc(O)c4-c4cc3ccc4O)[C@H](O)c3ccc(c(Cl)c3)Oc3cc2cc(c3O[C@@H]2O[C@H](CO)[C@@H](O)[C@H](O)[C@H]2O[C@H]2C[C@](C)(N)[C@H](O)[C@H](C)O2)Oc2ccc(cc2Cl)[C@H]1O` [Vancomycin]: the lowest concentration to inhibit growth against MRSA BCB8 (Staphylococcus aureus, MRSA, 24 h) (MIC) was 0.6 µg/mL (≈ 0.414 µM).
Take gentamicin: the “gentamicin MIC” value in assay [1] is less than 0.5 µg/mL.
In the case of “α-Norbornenyl-ω-Vancomycin Poly(Ethylene Oxide) [macro Vanco]”, the MIC (as a rule, the smallest concentration in the dilution series that meets the test's criterion for growth inhibition) against MRSA BCB8 (MRSA BCB8, 24 h at 37° C., lowest absorbance at 600 nm) came out at 1.3 µg/mL.
